Here are results for 23 compounds from US12145944B2, “Imidazopyrimidines as EED inhibitors and the use thereof” (THE REGENTS OF THE UNIVERSITY OF MICHIGAN, priority 2019, dated 2024).

Where two headings read alike, the source gives them in different places. A value given as a limit tells only on which side of the number the result lay.

Experiment [1] has as its target T1, EED (1-441)-His protein (Homo sapiens, UniProt O75530).
T1 construct: 20 nM EED (1-441)-His protein
The experiment in a line: EED-H3K27Me3 peptide competition binding assay by AlphaScreen. As to the method: “N/A” stands for “not assessed”.
EED-H3K27Me3 peptide competition binding assay by AlphaScreen (α-screen)
2.5 μl of solutions containing 20 nM biotin-H3K27Me3 (19-33) peptide in the buffer (25 mM HEPES, pH 8, 0.02% Tween-20, 0.5% BSA) were added to the wells and then incubated with compound for 30 min. […] Then 10 μl of the detection beads mix was added to the plate and incubated in the dark at RT for 1 h. The final concentration of donor and acceptor beads was 10 μg/ml for each. […] The data were then fit to a dose response equation to get the IC50 values.

The subject of experiment [2] is KARPAS422 human B cell lymphoma cell. The experiment in a line: Cell proliferation, KARPAS422, 7 day treatment (WST-8). The class given is cell-based. Put shortly: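 Read-out was WST-8 absorbance at 450 nm after 1-4 h with reagent, taken after 7-day compound treatment (serial dilutions, 37 °C, 5% CO2) of 2 000-3 000 KARPAS422 cells per well. IC50 fitted by nonlinear regression on DMSO-normalized values.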

Experiment [3] relates to Pfeiffer cell line. As to the kind of experiment: Anti-proliferative activity, Pfeiffer cell line, 7 day treatment. The experiment is classed as cell-based. Conditions: Homo sapiens, 168 h. Summed up: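 Cells seeded at 2 000-3 000 per well were treated with serially diluted compounds for 7 days at 37° C, 5% CO2. Growth was measured by WST-8 assay read at 450 nm after 1-4 h reagent incubation. Readings were normalized to DMSO-treated cells and IC50 values derived by nonlinear regression.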

The mark [4] stands for this setting: EED Alpha screen binding assay, read-out: Alpha screen.
[5] abbreviates: anti-proliferative IC50, Karpas 422 cell line, 7 day treatment, read-out: Karpas Cell line.
[6] abbreviates: anti-proliferative IC50, Pfeiffer cell line, 7 day treatment, read-out: Pfeiffer Cell line.
Where [7] appears, read: Homo sapiens, KARPAS-422, 168 h, anti-proliferative IC50, Karpas 422 cell line, 7 day treatment, read-out: Karpas Cell line.
Setting [8] is: Pfeiffer, read-out: Pfeiffer Cell line (nM).
Setting [9] is: Homo sapiens, KARPAS-422, 168 h, read-out: Karpas Cell line (nM).

T1 sequence (O75530 whole entry): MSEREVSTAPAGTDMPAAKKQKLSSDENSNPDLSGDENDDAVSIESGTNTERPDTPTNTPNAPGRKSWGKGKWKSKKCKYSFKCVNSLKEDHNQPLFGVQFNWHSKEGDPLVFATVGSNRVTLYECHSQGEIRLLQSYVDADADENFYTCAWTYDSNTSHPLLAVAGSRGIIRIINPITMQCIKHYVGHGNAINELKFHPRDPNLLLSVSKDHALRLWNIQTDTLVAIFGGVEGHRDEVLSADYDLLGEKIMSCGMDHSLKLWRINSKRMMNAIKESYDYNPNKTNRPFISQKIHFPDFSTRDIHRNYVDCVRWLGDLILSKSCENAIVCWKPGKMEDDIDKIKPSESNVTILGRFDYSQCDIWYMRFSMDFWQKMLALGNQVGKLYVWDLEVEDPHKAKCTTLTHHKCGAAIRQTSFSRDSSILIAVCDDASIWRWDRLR

Consider “4-(2,2-difluoroethyl)-7-fluoro-12-(((5-fluoro-2,3- dihydrobenzofuran-4-yl)methyl)amino)-4,5-dihydro- 3H-2,4,11,12a-tetraazabenzo[4,5]cycloocta[1,2,3- cd]inden-3-one [compound 80]”, for which the figures for the IC50 in experiment [1] (setting [4]) and in experiment [2] (setting [5]) were 1.61 nM and 2.42 nM, respectively.
Take “4-(2,2-difluoropropyl)-7-fluoro-12-(((5-fluoro-2,3- dihydrobenzofuran-4-yl)methyl)amino)-4,5-dihydro- 3H-2,4,11,12a-tetraazabenzo[4,5]cycloocta[1,2,3- cd]inden-3-one [compound 76]”: the IC50 turned out to be 0.97 nM in experiment [1] (setting [4]) and 14.5 nM in experiment [2] (setting [5]).
Regarding “7-fluoro-12-(((5-fluoro-2,3-dihydrobenzofuran-4- yl)methyl)amino)-4-(1-methylpiperidin-4-yl)-4,5- dihydro-3H-2,4,11,12a- tetraazabenzo[4,5]cycloocta[1,2,3-cd]inden-3-one [compound 75]”, the IC50 in experiment [1] (setting [4]) is 1.72 nM; in experiment [2] (setting [5]), 11.1 nM.
For the compound “7-fluoro-12-(((5-fluoro-2,3-dihydrobenzofuran-4- yl)methyl)amino)-4-(2-fluoro-2-methylpropyl)-4,5- dihydro-3H-2,4,11,12a- tetraazabenzo[4,5]cycloocta[1,2,3-cd]inden-3-one [compound 78]”, the IC50 in experiment [1] (setting [4]) was found to be 3.23 nM; in experiment [2] (setting [5]) it was 34.5 nM.
As for “7-fluoro-12-(((5-fluoro-2,3-dihydrobenzofuran-4- yl)methyl)amino)-4-(2-fluoroethyl)-4,5-dihydro-3H- 2,4,11,12a-tetraazabenzo[4,5]cycloocta[1,2,3- cd]inden-3-one [compound 79]”, the figures for the IC50 in experiment [1] (setting [4]) and in experiment [2] (setting [5]) were 1.61 nM and 15.3 nM, respectively.
For the compound `CCN1Cc2cc(C(F)(F)F)ncc2-c2cnc(NCc3c(F)ccc4c3CCO4)n3cnc(c23)C1=O` [compound 90, 4-ethyl-12-(((5-fluoro-2,3-dihydrobenzofuran-4-yl)methyl)amino)-7-(trifluoromethyl)-4,5-dihydro-3H-2,4,8,11,12a-pentaazabenzo[4,5]cycloocta[1,2,3-cd]inden-3-one], the results for the IC50 in experiment [3] (setting [6]) and in experiment [2] (setting [7]) were 0.044 nM and 0.078 nM, respectively.
On to `O=C1c2ncn3c(NCc4c(F)ccc5c4CCO5)ncc(c23)-c2sc(C(F)(F)F)nc2CN1C1CC1` [compound 91, 4-cyclopropyl-11-(((5-fluoro-2,3-dihydrobenzofuran-4-yl)methyl)amino)-7-(trifluoromethyl)-4,5-dihydro-3H-8-thia-2,4,6,10,11a-pentaazacyclopenta[4,5]cycloocta[1,2,3-cd]inden-3-one], for which the IC50 came to 0.043 nM in experiment [3] (setting [6]) and 5.23 nM in experiment [2] (setting [7]).
The like results for `CC1CC(N2Cc3cc(C(F)(F)F)ccc3-c3cnc(NCc4c(F)ccc5c4CCO5)n4cnc(c34)C2=O)CC(C)O1` (stereo not shown) [compound 93, 4-(2,6-dimethyltetrahydro-2H-pyran-4-yl)-12-(((5-fluoro-2,3-dihydrobenzofuran-4-yl)methyl)amino)-7-(trifluoromethyl)-4,5-dihydro-3H-2,4,11,12a-tetraazabenzo [4,5]cycloocta[1,2,3-cd]inden-3-one] were, in that order, 0.55 nM and 3.71 nM.
The like results for `O=S1(=O)Cc2ncccc2-c2cnc(NCc3c(F)ccc4c3CCO4)n3cnc1c23` [compound 94, 11-(((5-fluoro-2,3-dihydrobenzofuran-4-yl)methyl)amino)-4H-3-thia-2,5,10,11a-tetraazadibenzo[cd,f]azulene 3,3-dioxide] were, in that order, 0.2 nM and 13.9 nM.
With `O=S1(=O)CCc2cc(F)ccc2-c2cnc(NCc3c(F)ccc4c3CCO4)n3cnc1c23` [compound 96, 7-fluoro-12-(((5-fluoro-2,3-dihydrobenzofuran-4-yl)methyl)amino)-4,5-dihydro-3-thia-2,11,12a-triazabenzo[4,5]cycloocta[1,2,3-cd]indene 3,3-dioxide], the IC50 turned out to be 0.056 nM in experiment [3] (setting [6]) and 21.2 nM in experiment [2] (setting [7]).
For the compound `Cc1ccc2c(n1)CCS(=O)(=O)c1ncn3c(NCc4c(F)ccc5c4CCO5)ncc-2c13` [compound 97, 12-(((5-fluoro-2,3-dihydrobenzofuran-4-yl)methyl)amino)-7-methyl-4,5-dihydro-3-thia-2,6,11,12a-tetraazabenzo[4,5]cycloocta[1,2,3-cd]indene 3,3-dioxide], the figures for the IC50 in experiment [3] (setting [6]) and in experiment [2] (setting [7]) were 0.058 nM and 1.85 nM, respectively.
Consider `CS(=O)(=O)c1ccc(-c2cnc(NCc3c(F)ccc4c3CCO4)n3cnc(S(C)(=O)=O)c23)cc1` [compound 100, N-((5-fluoro-2,3-dihydrobenzofuran-4-yl)methyl)-1-(methylsulfonyl)-8-(4 (methylsulfonyl)phenyl)imidazo[1,5-c]pyrimidin-5-amine], for which the IC50 in experiment [3] (setting [8]) was 1.05 nM; in experiment [2] (setting [9]), 0.26 nM.
On to `Cc1ncccc1-c1cnc(NCc2c(F)ccc3c2CCO3)n2cnc(S(C)(=O)=O)c12` [compound 101, N-((5-fluoro-2,3-dihydrobenzofuran-4-yl)methyl)-8-(2-methylpyridin-3-yl)-1-(methylsulfonyl)imidazo[1,5-c]pyrimidin-5-amine], for which the IC50 turned out to be 1.76 nM in experiment [3] (setting [8]) and 5.59 nM in experiment [2] (setting [9]).
On to `CS(=O)(=O)c1ncn2c(NCc3c(F)ccc4c3CCO4)ncc(-c3ccc(F)cc3)c12` [compound 104, N-((5-fluoro-2,3-dihydrobenzofuran-4-yl)methyl)-8-(4-fluorophenyl)-1 (methylsulfonyl)imidazo[1,5-c]pyrimidin-5-amine], for which the figures for the IC50 in experiment [1] (setting [4]) and in experiment [2] (setting [9]) were 0.59 nM and 8.1 nM, respectively.
In the case of `Cn1cc(-c2cnc(NCc3c(F)ccc4c3CCO4)n3cnc(S(C)(=O)=O)c23)cn1` [compound 106, N-((5-fluoro-2,3-dihydrobenzofuran-4-yl)methyl)-8-(1-methyl-1H-pyrazol-4-yl)-1-(methylsulfonyl)imidazo[1,5-c]pyrimidin-5-amine], the IC50 in experiment [1] (setting [4]) is 0.556 nM; in experiment [2] (setting [9]), 10.6 nM.
With `CS(=O)(=O)c1ncn2c(NCc3c(F)ccc4c3CCO4)ncc(-c3ccc(C(F)F)nc3)c12` [compound 107, 8-(6-(difluoromethyl)pyridin-3-yl)-N-((5-fluoro-2,3-dihydrobenzofuran-4-yl)methyl)-1-(methylsulfonyl)imidazo[1,5-c]pyrimidin-5-amine], the figures for the IC50 in experiment [1] and in experiment [2] (setting [9]) were 0.215 nM and 2.84 nM, respectively.
As for `Cc1ccc(-c2cnc(NCc3c(F)ccc4c3CCO4)n3cnc(S(C)(=O)=O)c23)c(C)n1` [compound 108, 8-(2,6-dimethylpyridin-3-yl)-N-((5-fluoro-2,3-dihydrobenzofuran-4-yl)methyl)-1-(methylsulfonyl)imidazo[1,5-c]pyrimidin-5-amine], the results for the IC50 in experiment [1] (setting [4]) and in experiment [2] (setting [9]) were 0.421 nM and 6.89 nM, respectively.
On to `Cc1nc(C(F)(F)F)ccc1-c1cnc(NCc2c(F)ccc3c2CCO3)n2cnc(S(C)(=O)=O)c12` [compound 109, N-((5-fluoro-2,3-dihydrobenzofuran-4-yl)methyl)-8-(2-methyl-6-(trifluoromethyl)pyridin-3-yl)-1-(methylsulfonyl)imidazo[1,5-c]pyrimidin-5-amine], for which the figures for the IC50 in experiment [1] (setting [4]) and in experiment [2] (setting [9]) were 0.53 nM and 10.9 nM, respectively.
On to `Cc1cc(S(C)(=O)=O)ccc1-c1cnc(NCc2c(F)ccc3c2CCO3)n2cnc(S(C)(=O)=O)c12` [compound 110, N-((5-fluoro-2,3-dihydrobenzofuran-4-yl)methyl)-8-(2-methyl-4-(methylsulfonyl)phenyl)-1-(methylsulfonyl)imidazo[1,5-c]pyrimidin-5-amine], for which the IC50 in experiment [1] (setting [4]) amounted to 0.47 nM; in experiment [2] (setting [9]), 3.93 nM.
With `CS(=O)(=O)c1ncn2c(NCc3c(F)ccc4c3CCO4)ncc(-c3ccc(C4CC4)nc3)c12` [compound 111, 8-(6-cyclopropylpyridin-3-yl)-N-((5-fluoro-2,3-dihydrobenzofuran-4-yl)methyl)-1-(methylsulfonyl)imidazo[1,5-c]pyrimidin-5-amine], the IC50 in experiment [1] (setting [4]) amounted to 0.34 nM; in experiment [2] (setting [9]) it was 1.42 nM.
For `CS(=O)(=O)c1ccc(-c2cnc(NCc3c(F)ccc4c3CCO4)n3cnc(C(F)(F)F)c23)cc1` [compound 112, N-((5-fluoro-2,3-dihydrobenzofuran-4-yl)methyl)-8-(4-(methylsulfonyl)phenyl)-1-(trifluoromethyl)imidazo[1,5-c]pyrimidin-5-amine], the figures for the IC50 in experiment [1] (setting [4]) and in experiment [2] (setting [7]) were 0.83 nM and 20.3 nM, respectively.
Turning to `Fc1ccc2c(c1CNc1ncc(-c3ccc(C(F)(F)F)cc3)c3c(C(F)(F)F)ncn13)CCO2` [compound 113, N-((5-fluoro-2,3-dihydrobenzofuran-4-yl)methyl)-1-(trifluoromethyl)-8-(4-(trifluoromethyl)phenyl)imidazo[1,5-c]pyrimidin-5-amine], the IC50 in experiment [1] (setting [4]) is 0.98 nM; in experiment [2] (setting [7]), above 100 nM.
On to `Fc1ccc(-c2cnc(NCc3c(F)ccc4c3CCO4)n3cnc(C(F)(F)F)c23)cc1` [compound 114, N-((5-fluoro-2,3-dihydrobenzofuran-4-yl)methyl)-8-(4-fluorophenyl)-1-(trifluoromethyl)imidazo[1,5-c]pyrimidin-5-amine], for which the IC50 in experiment [1] (setting [4]) was 1.48 nM; in experiment [2] (setting [7]), above 100 nM.
